This note sets out measurements from ChEMBL document CHEMBL1150498, “Novel derivatives of pseudomonic acid” (Bioorg Med Chem Lett, 1997).

≈ marks a conversion by molar mass, not a printed value.

The subject of this assay is Staphylococcus aureus. The assay is described as follows: Compound was evaluated for inhibitory activity against Staphylococcus aureus ATCC 6538P. It is filed as functional.
As for `COC(=O)CCCCCCCCOC(=O)/C=C/C[C@@H]1OC[C@H](NS(=O)(=O)CCCCl)[C@@H](O)[C@H]1O`, the MIC came to 50 µg/mL (≈ 94.7 µM).
Then `CCCS(=O)(=O)N[C@H]1CO[C@@H](C/C=C/C(=O)OCCCCCCCCC(=O)OC)[C@H](O)[C@@H]1O`, with greater than 100 µg/mL; and `CCCCS(=O)(=O)N[C@H]1CO[C@@H](C/C=C/C(=O)OCCCCCCCCC(=O)OC)[C@H](O)[C@@H]1O`, with greater than 100 µg/mL; and `COC(=O)CCCCCCCCOC(=O)/C=C/C[C@@H]1OC[C@H](NS(C)(=O)=O)[C@@H](O)[C@H]1O`, with greater than 100 µg/mL.
For `COC(=O)CCCCCCCCOC(=O)/C=C/C[C@@H]1OC[C@H](NS(=O)(=O)c2cccc(Cl)c2)[C@@H](O)[C@H]1O` the value was 25 µg/mL (≈ 44.5 µM).

Usually MIC stands for the smallest concentration in the dilution series that meets the test's criterion for growth inhibition. Read a high MIC as weaker potency.
